Measured values from publication PMC6381106 (Scientific Reports, 2019).
No end group written: not given here.

Columns and labels:
[1] = test system: TNF-α mRNA expression in HMEC-1 cells; assay: qPCR of cytokine-induced TNF-α mRNA in HMEC-1; assay type: cell-based, human; settings: qPCR relative to GAPDH
Method: (§1) Human micro-vascular endothelial cells-1 (HMEC-1, from American Type Culture Collection Manassas, USA) was cultured in MCDB 131 medium (Sigma, USA) with 15% fetal bovine serum (FBS; Sigma, USA). The medium was supplemented with 1% L-glutamine, 500 µg/ml streptomycin (Biowest, USA), 500 units/ml penicillin (Biowest, USA), 1 μg/ml hydrocortisone (Sigma, USA) and 10 ng/ml Epidermal Growth Factor (ProSpec, USA). The human acute monocytic leukemia cells (THP-1 cells) obtained from the Bioresource Collection and Research Center (Hsinchu, Taiwan) were cultivated in the RPMI-1640 medium (Invitrogen, USA) with 10% FBS. THP-1 were differentiated to macrophage by […] Phorbol 12-myristate 13-acetate (PMA; Sigma, USA) for 24 hours before peptides treatment.
(§2) Cells were grown to confluence in 6-cm^2 culture plates. Peptides were incubated with TNF-α (20 ng/ml) for 1 h and then treated the cells for 4 h. […] An aliquot (5 µg) of purified RNA was reverse transcribed into first-strand complementary DNA (cDNA) with a 2720 Thermal Cycler (Applied Biosystems, Grand Island, NY, USA), 200 U/μl M-MLV reverse-transcriptase (Invitrogen) and […] oligo(dT)-adapter primers (Invitrogen) in a 20 μl reaction mixture. […] Quantitation of gene expression was conducted relative to GAPDH expression levels.

[2] = test system: IL-6-induced adhesion of THP-1 to HMEC-1 cells; assay: Monocyte binding assay, IL-6-induced THP-1 adhesion to HMEC-1; assay type: cell-based, human; settings: various concentrations, 1 h pretreatment, then 20 ng/ml IL-6 18 h; three independent experiments (Figure S4)
Method: as §1
(§3) To perform the test of monocyte adherence to endothelial cells monolayers, the HMEC-1 cell monolayers were cultivated on 24-well plates under serum-starvation condition prior to the monocyte binding assay. The peptides were added to the HMEC-1 cells for one hour prior to the activation by 20 ng/ml TNF-α (Sigma, USA), IL-1β (GOLDBIO, USA) and IL-6 (GOLDBIO, USA) for 18 hours. […] The adhered monocytes were detected and photographed (five images per well) by fluorescent microscopy and the amount of stuck THP-1 cells were counted by the software AlphaImager 2200 (Alpha Innotech, USA).

[3] = test system: IL-1β-induced adhesion of THP-1 to HMEC-1 cells; assay: Monocyte binding assay, IL-1β-induced THP-1 adhesion to HMEC-1; assay type: cell-based, human; settings: various concentrations, 1 h pretreatment, then 20 ng/ml IL-1β 18 h; three independent experiments (Figure S4)
Method: as §1, §3

[4] = test system: TNF-α-induced adhesion of THP-1 to HMEC-1 cells; assay: Monocyte binding assay, TNF-α-induced THP-1 adhesion to HMEC-1; assay type: cell-based, human; settings: various concentrations, 1 h pretreatment, then 20 ng/ml TNF-α 18 h; three independent experiments (Fig. 4D, Figure S4)
Method: as §1, §3

[5] = test system: white blood cell infiltration in the peritoneal cavity, BABL/c mice; assay: Thioglycollate-induced acute peritonitis model; assay type: in vivo, mouse; settings: counts at 24 h
Method: The animal experiment was used 8- to 10-week-old male BABL/c mice to be the animal model. These mice were purchased from the National Laboratory Animal Breeding and Research Center, Taipei. The mice were housed in a temperature-controlled, light-cycled facility. Peritonitis was induced by an intraperitoneal injection of 4% (w/v) thioglycollate in 1 ml of sterile saline (Sigma–Aldrich, USA). Treatment with saline or peptides (5 mg/kg) was performed 4 h after the administration of thioglycollate by intravenous injection. At 24 h after thioglycollate injection, mice were killed by exposure to CO2, and 5 ml of HBSS was injected into the peritoneal cavity. Cells were obtained by aspirating peritoneal lavage. Differential cell counts were determined using a Hematology Analyzer (KX-21N; Sysmex, USA).

[6] = test system: TNF-α secretion in THP-1 cells; assay: ELISA of IL-1β-induced TNF-α secretion in THP-1; assay type: cell-based, human
Text: In addition, the decline in cytokine–receptor interactions might suppress cytokine mRNA expression and cytokine production in endothelial cells and monocytes. Treatment with KCF18 suppressed TNF-α mRNA expression following cytokines TNF-α, IL-1β and IL-6 stimulation (Fig. 6). To assess the efficacy of KCF18, we performed the RT-qPCR in THP-1 and HMEC-1 cells and ELISA assay for detecting TNF-α secretion including a TNF-α blocking antibody (R&D systems, USA)[57]–[59] as an additional condition in their experiments. […] We further analyze whether the KCF18 could suppress IL-1β induced TNF-α or TNF-α induced IL-1β expressions by ELISA assay (Supporting Figure S7). […] Since TNF-α blocking antibody captures the TNF-α in the conditioned medium, it may interfere the detection of TNF-α by ELISA (Supporting Figure S7). In summary, indeed, KCF18 expresses the ability to reduce cytokines induced TNF-α mRNA and protein expression. […] We also assessed the ability of KCF18 to inhibit TNF-α-mediated p65 nuclear translocation and endothelial ICAM-1 expression (Supporting Figure S8). […]
Figure S7: Peptide KCF18 and TNF-a antagonist antibody affect the protein expression of cytokine s-induced TNF-α an d I L-1b in TH P-1 cells. TNF-α and IL-1b secretion levels induced by (A) IL-1b and (B) TNF-α in THP-1 were determined using ELISA assays. […]

[7] = test system: TNF-α mRNA expression in THP-1 cells; assay: qPCR of cytokine-induced TNF-α mRNA in THP-1; assay type: cell-based, human; settings: qPCR relative to GAPDH; TNF-α blocking antibody 1 μg/ml, peptide 500 nM; three independent experiments (Figure S6A)
Method: as §1, §2

[8] = test system: HMEC-1 cells; assay: Cell cytotoxic assay (WST-1); assay type: cell-based, human; settings: WST-1, 24 and 48 hours, 0.5 μM to 5 μM peptide (Figure S5)
Method: as §1
To assess whether the peptide KCF18 is toxic to the endothelial cells, 1 × 10^4 cells were placed into 96-well micro-plates and incubated for 2 hours for adherence. After adhesion, the medium with various concentrations of peptides (0.5 μM to 5 μM) were added to the wells. After 24 and 48 hours, the HMEC-1 cells were washed with Hank’s balanced salt solution and the survivals of HMEC-1 were detected by WST-1 assay kit (Roche, USA). The experiment was assessed in quadruplicate and repeated three times.

[9] = target: T1, IL-6 (Homo sapiens, UniProt P05231); assay: SPR binding to immobilized IL-6 (Biacore T200); settings: CM5 chip, IL-6 immobilized (approximately 2000 RU), single cycle, 2, 10, 25, 50, 100 μM peptide, 10 μl/min, 25 °C, monovalent binding model, read-out: equilibrium dissociation KD
T1 construct: purchased GOLDBIO.COM, USA 1110-06
T1 sequence (P05231 30-212): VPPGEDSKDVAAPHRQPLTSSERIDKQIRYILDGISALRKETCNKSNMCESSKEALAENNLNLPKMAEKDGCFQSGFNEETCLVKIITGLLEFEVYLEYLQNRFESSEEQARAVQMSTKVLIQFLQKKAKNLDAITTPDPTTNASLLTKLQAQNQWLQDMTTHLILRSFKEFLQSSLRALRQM
Method: The recombinant proteins of TNF-α (catalog^#1130-01), IL-1β (catalog^#1110-01B), and IL-6 (catalog^#1110-06) were purchased from the GOLDBIO.COM, USA.
The peptide KCF18 predicted from molecular docking and MM/PBSA binding free energy calculations were synthesized to confirm whether the peptide can bind to the pro-inflammatory cytokines by using SPR measurements. A Biacore T200 workstation (GE Healthcare, USA) was used for SPR detection. These cytokines (250 μg/ml TNF-α and 400 μg/ml IL-6) were diluted into 10 mM sodium acetate buffer at pH 4.0 and immobilized onto a CM5 sensor chip using amine coupling (EDC-NHS) for 210 secs at a flow rate of 10 μl/min. Approximately 5000 and 2000 response units (RU) of cytokines TNF-α and IL-6 were immobilized on the sensor chip, respectively. The flow channel-1 also treated the EDC-NHS as a reference to reduce the non-specific binding between dextran and peptides. […] The complexes were allowed to associate for 180 secs and then to dissociate for 90 secs. Surfaces were regenerated with an injection of 2 mM MgCl2 at a flow rate of 30 µl/min for 30 secs. A monovalent binding model was used to generate and fit the equilibrium binding curves for each peptide to determine the KD of the binding of peptide KCF18 with the pro-inflammatory cytokines.

[10] = target: T2, tumor necrosis factor-α (TNF-α), recombinant (UniProt P01375 77-233); assay: SPR; Biacore T200; cytokine (about 5000 RU TNF-α, about 2000 RU IL-6) amine-coupled to a CM5 chip; peptide flowed over, single cycle kinetics, KCF18 at 2, 10, 25, 50 and 100 μM, 10 μl/min, 25 °C; steady-state binding isotherm fitted with a monovalent binding model; settings: both partners purified
T2 construct: TNF-α, bought recombinant protein; The bought product is probably the soluble mature human form (surmise); Amine-coupled to a CM5 chip for SPR; source: bought: GOLDBIO.COM, USA (catalog #1130-01)
T2 sequence (P01375 77-233): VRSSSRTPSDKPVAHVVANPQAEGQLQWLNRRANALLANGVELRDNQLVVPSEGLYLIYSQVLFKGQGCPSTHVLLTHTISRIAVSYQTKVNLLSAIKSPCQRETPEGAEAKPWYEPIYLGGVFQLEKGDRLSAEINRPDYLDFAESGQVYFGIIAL

[11] = target: T3, interleukin-6 (IL-6), recombinant (UniProt P05231 30-212); assay: as above; settings: both partners purified
T3 construct: IL-6, bought recombinant protein; The simulations used human IL-6 (PDB 2IL6 with a modelled N-terminus); The bought product is probably mature human IL-6 (surmise); Amine-coupled to a CM5 chip for SPR; source: bought: GOLDBIO.COM, USA (catalog #1110-06)

“CPLNGSTVYGHLRHCLSCSGTMVKF [CF25, a random peptide with 25 amino acids, negative control]” was tested, and the “TNF-α-induced TNF-α mRNA expression in HMEC-1 (in words)” value ([1]; peptide incubated with TNF-α (20 ng/ml) 1 h, cells treated 4 h, three independent experiments (Fig. 6A)) was “had no inhibitory effect on TNF-α-induced TNF-α mRNA expression”, the “effect on IL-6-induced monocyte binding to HMEC-1 (in words)” value [2] was “could not repress cytokine-increased monocyte binding to HMEC-1 cells” and the “effect on IL-1β-induced monocyte binding to HMEC-1 (in words)” value [3] was “could not repress cytokine-increased monocyte binding to HMEC-1 cells”. For the same molecule, the “effect on TNF-α-induced monocyte binding to HMEC-1 (in words)” value [4] was “could not repress cytokine-increased monocyte binding to HMEC-1 cells” and the “total white blood cell infiltration in the peritoneal cavity (in words)” value ([5]; 5 mg/kg i.v. 4 h after i.p. 4% thioglycollate, mean ± SEM, n = 5 KCF18, n = 7 CF25, n = 6 control, *P < 0.05 vs control (Fig. 7)) was “had no potential anti-inflammatory effect”.

In the case of “IL-1β: recombinant IL-1β (GOLDBIO), used as stimulus [reference compound]”, the “induction of TNF-α secretion in THP-1” value ([6]; 20 ng/ml IL-1β as stimulus) is reported as 2 fold.

“KCAKEMFAQKLPYSAVYF [mKCF18, mutant peptide of KCF18]” was tested, and the “TNF-α-induced TNF-α mRNA expression in HMEC-1, antibody comparison (in words)” value ([1]; TNF-α blocking antibody 1 μg/ml, peptide 500 nM, three independent experiments (Figure S6B)) was “had no inhibitory effect on TNF-α induced TNF-α mRNA expression in both cells”, the “TNF-α-induced TNF-α mRNA expression in THP-1, antibody comparison (in words)” value [7] was “had no inhibitory effect on TNF-α induced TNF-α mRNA expression in both cells” and the “IL-1β-induced TNF-α expression in THP-1 (in words)” value ([6]; 20 ng/ml IL-1β, pretreatment with peptide, relative to cell lysate concentration, three independent experiments (Figure S7A)) was “could not inhibit IL-1β induced TNF-α expression”. For the same molecule, the “WBC infiltration, comparison of mKCF18 with KCF18 (in words)” value ([5]; i.v. 4 h after i.p. thioglycollate, n = 3 for each group (Figure S9)) was “worse than KCF18 peptide”.

KCRKEMFKQKLPYSTVYF [KCF18] was tested, and the “HMEC-1 cell viability vs control cells (in words)” value [8] was “no important discrepancy was noticed in cell viability among control cells and peptide-treated cells” and the Kd [9] was 111 µM.

B1: composite peptide KCF18 (peptide)
peptide: KCRKEMFKQKLPYSTVYF
notes: designed 18-residue composite peptide: KCRKEM from TNFR1, FKQKLP from IL-1R, YSTVYF from the IL-6 receptor; also called designed peptide KCF18; source: synthetic peptide (GeneMark, GMbiolab Co., Ltd., Taiwan; solid phase)
For B1, the Kd [10] was 60.9 µM and the Kd [11] was 112 µM.
